The results in this text go back to ChEMBL document CHEMBL1129277, “Nonpeptidal P2 ligands for HIV protease inhibitors: structure-based design, synthesis, and biological evaluation” (J Med Chem, 1996).

A short description of data set [1]: Aqueous solubility in phosphate buffer of pH 7.4. The class given is physicochemical.
The subject of data set [2] is Human immunodeficiency virus 1. Description: Inhibition of HIV-1 replication in infected MT-4 human T-lymphoid cells. Format: functional, organism-based. The conditions noted are these: Human immunodeficiency virus 1, T-lymphoid.
Data set [3] concerns the target Human immunodeficiency virus type 1 protease (Human immunodeficiency virus 1) (UniProt Q72874). Briefly: Inhibitory activity against HIV-1 protease enzyme.

Structures are written as SMILES. pIC50: −log10 of the molar value. Converted amounts (≈) assume the structure as drawn. A value given as a limit tells only on which side of the number the result lay.

Compound `CC(C)(C)NC(=O)[C@@H]1C[C@@H]2CCCC[C@@H]2CN1C[C@@H](O)[C@H](Cc1ccccc1)NC(=O)[C@H](CC(N)=O)NC(=O)c1ccc2ccccc2n1` [SAQUINAVIR] returned a solubility in data set [1] of 0.01 mg/mL (≈ 14.9 µM). Turning to `CC(C)(C)NC(=O)[C@@H]1C[C@@H]2CCCC[C@@H]2CN1C[C@@H](O)[C@H](Cc1ccccc1)NC(=O)O[C@H]1CCSC1`, the pIC50 in data set [2] is 6.88. `CC(C)(C)NC(=O)[C@@H]1C[C@@H]2CCCC[C@@H]2CN1C[C@@H](O)[C@H](Cc1ccccc1)NC(=O)O[C@@H]1CO[C@@H]2CCO[C@@H]21`: the pIC50 in data set [2] is below 5.52. In data set [3], this compound yielded an IC95 above 0.2 µM.

Regarding `COC[C@H]1[C@@H](OC(=O)N[C@@H](Cc2ccccc2)[C@H](O)CN2C[C@H]3CCCC[C@H]3C[C@H]2C(=O)NC(C)(C)C)CCS1(=O)=O`, the pIC50 in data set [2] was 7.62.

`CC(C)(C)NC(=O)[C@@H]1C[C@@H]2CCCC[C@@H]2CN1C[C@@H](O)[C@H](Cc1ccccc1)NC(=O)O[C@H]1CC[C@H]2OCC[C@@H]12`: the pIC50 in data set [2] was 7.77. `CC(C)(C)NC(=O)[C@@H]1C[C@@H]2CCCC[C@@H]2CN1C[C@@H](O)[C@H](Cc1ccccc1)NC(=O)O[C@H]1CO[C@H]2OCC[C@H]21` registered a solubility in data set [1] of 0.235 mg/mL (≈ 421 µM). Also, in data set [2], the pIC50 is 8.74. For the compound `C[C@@H]1C[C@@H]2[C@@H](OC[C@@H]2OC(=O)N[C@@H](Cc2ccccc2)[C@H](O)CN2C[C@H]3CCCC[C@H]3C[C@H]2C(=O)NC(C)(C)C)O1`, the pIC50 in data set [2] is 8.39. For the same compound, the IC95 in data set [3] was found to be 0.2 µM. The corresponding values for `C[C@H]1C[C@@H]2[C@@H](OC[C@@H]2OC(=O)N[C@@H](Cc2ccccc2)[C@H](O)CN2C[C@H]3CCCC[C@H]3C[C@H]2C(=O)NC(C)(C)C)O1` are 7.57 and 0.2 µM. With `CC(C)(C)NC(=O)[C@@H]1C[C@@H]2CCCC[C@@H]2CN1C[C@@H](O)[C@H](Cc1ccccc1)NC(=O)O[C@@H]1CO[C@@H]2OCCC[C@@H]21`, in data set [1], the solubility was determined as 0.107 mg/mL (≈ 187 µM). The same compound had a pIC50 in data set [2] of 8.92. In data set [3], this compound gave an IC95 of 0.05 µM. `CC(C)(C)NC(=O)[C@@H]1C[C@@H]2CCCC[C@@H]2CN1C[C@@H](O)[C@H](Cc1ccccc1)NC(=O)O[C@H]1CCS(=O)(=O)C1` gave a pIC50 in data set [2] of 7.12. The IC95 in data set [3] came out at 0.364 µM. In data set [2], `CC(C)(C)NC(=O)[C@@H]1C[C@@H]2CCCC[C@@H]2CN1C[C@@H](O)[C@H](Cc1ccccc1)NC(=O)O[C@H]1CO[C@H]2COC[C@H]21` gave a pIC50 of 5.77.

As for `CC(C)(C)NC(=O)[C@@H]1C[C@@H]2CCCC[C@@H]2CN1C[C@@H](O)[C@H](Cc1ccccc1)NC(=O)O[C@]12CCO[C@H]1OCC2`, in data set [2], the pIC50 was 6.39. Further, the IC95 in data set [3] was above 0.2 µM. The corresponding values for `CC(C)(C)NC(=O)[C@@H]1C[C@@H]2CCCC[C@@H]2CN1C[C@@H](O)[C@H](Cc1ccccc1)NC(=O)O[C@H]1CO[C@H]2OCCC[C@H]21` are 8.38 and 0.1 µM.

`CC(C)(C)NC(=O)[C@@H]1C[C@@H]2CCCC[C@@H]2CN1C[C@@H](O)[C@H](Cc1ccccc1)NC(=O)O[C@H]1CO[C@H]2CCC[C@H]21` showed a pIC50 in data set [2] of 6.72.

Consider `CC(C)(C)NC(=O)[C@@H]1C[C@@H]2CCCC[C@@H]2CN1C[C@@H](O)[C@H](Cc1ccccc1)NC(=O)O[C@@H]1CCOC1`, for which, in data set [2], the pIC50 is 6.16. For the same compound, the IC95 in data set [3] was above 0.8 µM. In data set [1], `CC(C)(C)NC(=O)[C@@H]1C[C@@H]2CCCC[C@@H]2CN1C[C@@H](O)[C@H](Cc1ccccc1)NC(=O)O[C@@H]1CO[C@@H]2OCC[C@@H]21` gave a solubility of 0.13 mg/mL (≈ 233 µM). This compound also showed a pIC50 in data set [2] of 8.19.

In data set [2], `COC[C@@H]1SCC[C@@H]1OC(=O)N[C@@H](Cc1ccccc1)[C@H](O)CN1C[C@H]2CCCC[C@H]2C[C@H]1C(=O)NC(C)(C)C` had a pIC50 of 7.71. Compound `CC(C)(C)NC(=O)[C@@H]1C[C@@H]2CCCC[C@@H]2CN1C[C@@H](O)[C@H](Cc1ccccc1)NC(=O)O[C@H]1CO[C@@]2(C)OCC[C@@H]12` showed a pIC50 in data set [2] of 7.74. The IC95 in data set [3] is above 0.2 µM.

On to `CC(C)(C)NC(=O)[C@@H]1C[C@@H]2CCCC[C@@H]2CN1C[C@@H](O)[C@H](Cc1ccccc1)NC(=O)O[C@H]1CCOC1`, for which the concentration in solution in data set [1] (solubility) was 0.15 mg/mL (≈ 291 µM). The same compound showed a pIC50 in data set [2] of 6.88.

By solubility is commonly meant how much of the substance goes into solution per volume. Usually pIC50 stands for −log10 of the IC50, conventionally taken in molar units. Read a low pIC50 as a large IC50. Broadly, the IC95 is the concentration needed for an effect of 95%.
